# Measured values taken from US20060079453A1, “Hla binding peptides and their uses” (priority 2002, published 2006).
# Where two headings read alike, the source gives them in different places. No end group written: not given here.
# Key:
# Test in all cases: biochemical
# Format in all cases: binding
# HLA-A*3101 = HLA-A*3101 (Homo sapiens, UniProt P04439, A270S/D185E/E176V/E277Q/F33T/G231S/G80R/H175R/I121M/I218V/I322F/K168Q/L300P/L318F/M331R/P217A/Q94H/R138Q/T323A/T345S/T97I/V358M)
# HLA-A*0301 = HLA-A*0301 (Homo sapiens, UniProt P04439)
# HLA-DR DRB1*0802 (DR8) = HLA-DR DRB1*0802 (DR8) (Homo sapiens, UniProt P01903+P01911, A100R/A103L/A169T/F76Y/H45Y/I96F/K41T/L162R/M171V/P40S/Q125H/Q178H/Q39Y/Q99D/R218S/R42G/S66Y/V115G/W38E)
# HLA-DR DRB1*0101 (DR1) = HLA-DR DRB1*0101 (DR1) (Homo sapiens, UniProt P01903+P01911, A100R/D57E/F55L/F60I/F76Y/I96L/L162R/M171V/P40L/Q125E/R42F/V115G/Y59C); details: DRB1 *0101
# HLA-DR DRB1*0301 (DR3) = HLA-DR DRB1*0301 (DR3) (Homo sapiens, UniProt P01903+P01911, A100K/A102G/A103R/A169T/F55Y/I96L/K41T/L162R/M171V/P40S/Q125H/Q178H/Q39Y/R42S/S66N/T106N/T262R/W38E/Y61H)
# HLA-DR DRB1*0301 (DR3), sequence (P01903 26-254 limits assumed, other chains not shown): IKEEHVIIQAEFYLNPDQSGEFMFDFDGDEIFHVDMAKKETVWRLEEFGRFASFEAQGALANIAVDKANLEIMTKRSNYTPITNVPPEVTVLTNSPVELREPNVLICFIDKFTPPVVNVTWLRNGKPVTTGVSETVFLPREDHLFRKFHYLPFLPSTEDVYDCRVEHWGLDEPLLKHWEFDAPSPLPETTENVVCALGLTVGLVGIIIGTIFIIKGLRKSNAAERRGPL
# HLA-DR DRB1*0901 (DR9) = HLA-DR DRB1*0901 (DR9) (Homo sapiens, UniProt P01903+P01911, A100R/A103E/D57H/D86V/F55Y/F60I/F76Y/I96F/K127E/L162R/M171V/P40D/Q125H/Q99R/R33Q/R42F/S133A/S66N/T210M/V115G/W38K/Y107V/Y59G/Y89S); details: DRB1 *0901
# HLA-DR DRB3*0101 (DR52) = HLA-DR DRB3*0101 (DR52) (Homo sapiens, UniProt P01903+P79483)
# HLA-DR DRB1*1101 (DR11) = HLA-DR DRB1*1101 (DR11) (Homo sapiens, UniProt P01903+P01911, A100R/A169T/A87E/I96F/K41T/L162R/M171V/P40S/Q125H/Q178H/Q39Y/Q99D/R42S/S66Y/T262R/V115G/W38E); details: DRB1 *1101
# HLA-DR DRB1*1101 (DR11), sequence (P01903 26-254 limits assumed, other chains not shown): as above
# HLA-DR DRB4*0101 (DR53) = HLA-DR DRB4*0101 (DR53) (Homo sapiens, UniProt P01903+P13762, G164S); details: DRB4 *0101
# HLA-DR DRB1*0701 (DR7) = HLA-DR DRB1*0701 (DR7) (Homo sapiens, UniProt P01903+P01911, A100R/A102G/A103Q/D57E/D86V/E43K/F76Y/K127E/L162R/M171V/P40G/Q125H/Q99D/R33Q/R42Y/R54Q/S133A/S66F/T210M/V115G/Y107V/Y59L/Y89S); details: DRB1 *0701
# HLA-DR DRB5*0101 (DR51) = HLA-DR DRB5*0101 (DR51) (Homo sapiens, UniProt P01903+Q30154); details: DRB5 *0101
# HLA-DR DRB1*1501 (DR15) = HLA-DR DRB1*1501 (DR15) (Homo sapiens, UniProt P01903+P01911); details: DRBI *1501
# HLA-DR DRB1*0401 (DR4) = HLA-DR DRB1*0401 (DR4) (Homo sapiens, UniProt P01903+P01911, A100K/A169T/F76Y/I96L/K127E/L162R/M171V/N62H/P40V/Q125Y/R42H/S133A/S149N/S66Y/V115G/V209L/W38E); details: DRB1 *0401
# HLA-DR DRB1*1302 (DR13) = HLA-DR DRB1*1302 (DR13) (Homo sapiens, UniProt P01903+P01911, A100E/A169T/K41T/L162R/M171V/P40S/Q125H/Q178H/Q39Y/Q99D/R42S/S66N/T262R/V115G/W38E/Y61H); details: DRBI *1302
# HLA-DR DRB1*1302 (DR13), sequence (P01903 26-254 limits assumed, other chains not shown): as above
# HLA-A*1101 = HLA-A*1101 (Homo sapiens, UniProt P04439, A114D/D185E/E176A/F33Y/L180Q/S129P/T187R)
# [1] = read-out: A*0301 binding affinity (expressed as an IC50)
# [2] = read-out: A*0301 binding affinity (IC50)
# [3] = read-out: A*3101 binding affinity (IC50)
# [4] = read-out: A*3101 binding affinity (expressed as an IC50)
sequence,measurement,setting,value
LFDKDTFFK,IC50,HLA-A*3101,5710 nM
same,IC50,HLA-A*0301,931 nM
LHLLSNDMCARAYSE,IC50,HLA-DR DRB1*0802 (DR8),50200 nM
same,IC50,HLA-DR DRB1*0101 (DR1),2100 nM
same,IC50,HLA-DR DRB1*0301 (DR3),938 nM
same,IC50,HLA-DR DRB1*0901 (DR9),59900 nM
same,IC50,HLA-DR DRB3*0101 (DR52),1310 nM
same,IC50,HLA-DR DRB1*1101 (DR11),26000 nM
same,IC50,HLA-DR DRB4*0101 (DR53),324 nM
same,IC50,HLA-DR DRB1*0701 (DR7),27700 nM
same,IC50,HLA-DR DRB5*0101 (DR51),28800 nM
same,IC50,HLA-DR DRB1*1501 (DR15),> 2370 nM
same,IC50,HLA-DR DRB1*0401 (DR4),4280 nM
same,IC50,HLA-DR DRB1*1302 (DR13),1880 nM
LLIRGINCQR,IC50,HLA-A*0301; [1],2820 nM
LVYESSADDLR,IC50,HLA-A*0301; [2],> 47000 nM
RTQCVQGKK,IC50,HLA-A*0301; [2],234 nM
RVPLTFGWGFK,IC50,HLA-A*1101; read-out: A*1101 binding affinity (expressed as an IC50),30 nM
same,IC50,HLA-A*0301; [1],69 nM
SEYGETLEK,IC50,HLA-A*3101; [3],947 nM
VAIKIGGQLK,IC50,HLA-A*3101; [4],46900 nM
same,IC50,HLA-A*0301; [1],2590 nM
VSIACVYGR,IC50,HLA-A*3101; [3],42 nM
VTIKLGGQIIR,IC50,HLA-A*3101; [4],590 nM
same,IC50,HLA-A*0301; [1],43300 nM
VTVKIEGQLR,IC50,HLA-A*3101; [4],394 nM
same,IC50,HLA-A*0301; [1],35600 nM
VVCSMEYKK,IC50,HLA-A*1101,54 nM
same,IC50,HLA-A*0301,443 nM
WTGSCLGGWK,IC50,HLA-A*0301; [2],7710 nM
WVGRGIACWR,IC50,HLA-A*0301; [1],6230 nM
YLTNKHWQR,IC50,HLA-A*3101; [3],4.4 nM
YLVTGERGFFYTPKT,IC50,HLA-DR DRB1*0802 (DR8),29200 nM
same,IC50,HLA-DR DRB1*0101 (DR1),779 nM
same,IC50,HLA-DR DRB1*0301 (DR3),517 nM
same,IC50,HLA-DR DRB1*0901 (DR9),6300 nM
same,IC50,HLA-DR DRB3*0101 (DR52),13700 nM
same,IC50,HLA-DR DRB1*1101 (DR11),7620 nM
same,IC50,HLA-DR DRB4*0101 (DR53),20700 nM
same,IC50,HLA-DR DRB1*0701 (DR7),7740 nM
same,IC50,HLA-DR DRB5*0101 (DR51),> 28400 nM
same,IC50,HLA-DR DRB1*1501 (DR15),> 25600 nM
same,IC50,HLA-DR DRB1*0401 (DR4),> 20500 nM
same,IC50,HLA-DR DRB1*1302 (DR13),2100 nM
